{"source": "patent US20080132689A1", "about": "“Labile Linkage for Compound Delivery to a Cell” (priority 2003, published 2008)", "key": {"[1]": {"test": "Measurement of acetal kinetics (rate of acetal hydrolysis in buffered solutions, by absorbance)", "assay_type": "physicochemical", "text": "To illustrate the rate of cleavage of several example ortho carboxy phenol derived acetals, we synthesized the molecules 1-3 (shown in FIG. 2) and measured the rates of acetal hydrolysis for each at pH 5.2-7.3. • Acetal 1. R′, R=alkyl; and R1, R2, R3, R4=hydrogen • Acetal 2. R′, R=alkyl; R1, R4=hydrogen; R2=carboxyl (carbon-containing group); R3=hydroxyl (heteroatom) • Acetal 3. R′=alkyl; R, R2, R3, R4=hydrogen; and R1=carboxyl (carbon-containing group)\nTo determine the rate of acetal hydrolysis, compounds 1-3 were added to buffered solutions (pH 7-8 with 5 mM HEPES, or pH 5-7 with 5 mM acetate) at various pH values and the absorbance of the solution was measured as a function of time (λ=302 nm for 1 and 2 and 310 nm for 3). The rate constant was determined by determining the slope of the line derived from plotting ln[1-((A∞-At)/(A∞-AO))] as a function of time t, where A∞ is absorbance after>3 hours of hydrolysis, At is the absorbance at time t, and AO is the initial absorbance. The half-life of the hydrolysis equals ln[2] divided by the rate constant."}, "[2]": {"test_system": "Hepa mouse hepatoma cells", "test": "DNA transfection with crosslinked pCIluc/DW921 complexes, luciferase expression", "assay_type": "cell-based", "conditions": "pCIluc 10 μg/mL, DW921 100 μg/mL, 48 h, average of two wells", "experimental": "To a solution of plasmid DNA pCIluc (10 μg/mL, 0.075 mM in phosphate, 2.6 μg/μL pCIluc; prepared according to Danko et al. 1997) in 0.5 mL of 150 mM NaCl and 5 mM TAPS pH 9 was added 100 μg/mL DW921. The complexes were then reacted with glutaraldehyde, periodate oxidized phenyl glucoside (another crosslinker containing a labile bond), or periodate oxidized salicylic galactoside at 1, 2, 4, 8, or 16 μg/mL. The complexes were then added (200 μL) to wells containing Hepa mouse hepatoma cells in Dulbecco's modified Eagle's Media containing 10% fetal bovine serum. The cells were allowed to incubate for 48 h. The cells were then harvested and assayed for luciferase expression as previously reported. The amount of transfection was reported in relative light units and is the average transfection for two separate wells of cells."}}}
{"smiles": "CC(C)CCOC(C)Oc1ccccc1C(=O)O", "note": "(centres unmarked) [Acetal 1]", "values": [{"measurement": "half-life (minutes) of acetal hydrolysis", "setting": "[1]; pH 7.3", "result": 1.0, "unit": "min"}]}
{"smiles": "CC(C)[C@@H]1CC[C@@H](C)C[C@H]1OCOc1c(C(=O)O)cccc1C(=O)O", "note": "[Acetal 3]", "values": [{"measurement": "half-life (minutes) of acetal hydrolysis", "setting": "[1]; pH 5.2", "result": 0.22, "unit": "min"}, {"measurement": "half-life (minutes) of acetal hydrolysis", "setting": "[1]; pH 6.5", "result": 4.7, "unit": "min"}]}
{"smiles": "O=CCCCC=O", "note": "[glutaraldehyde]", "values": [{"measurement": "Relative Light Units", "setting": "[2]; 1 μg/mL dialdehyde crosslinker", "result": 915, "unit": "Relative Light Units"}, {"measurement": "Relative Light Units", "setting": "[2]; 2 μg/mL dialdehyde crosslinker", "result": 620, "unit": "Relative Light Units"}, {"measurement": "Relative Light Units", "setting": "[2]; 4 μg/mL dialdehyde crosslinker", "result": "1,400 Relative Light Units"}, {"measurement": "Relative Light Units", "setting": "[2]; 8 μg/mL dialdehyde crosslinker", "result": 590, "unit": "Relative Light Units"}, {"measurement": "Relative Light Units", "setting": "[2]; 16 μg/mL dialdehyde crosslinker", "result": 565, "unit": "Relative Light Units"}]}
